Broadly, the Ki is the dissociation constant of the complex between target and ligand, obtained from inhibition or displacement.

The subject of experiment [1] is Brassica juncea. Kind of experiment: Post-emergence herbicidal activity against Brassica juncea seedlings assessed as plant growth inhibition at 37.5 g ai/ha measured 15 days after compound treatment under greenhouse conditions. In kind it is functional. The conditions noted are these: 360 h, read-out: GI.
Experiment [2] deals with Chenopodium album. In words: Post-emergence herbicidal activity against Chenopodium album seedlings assessed as plant growth inhibition at 75 g ai/ha measured 15 days after compound treatment under greenhouse conditions. Format: functional. To be noted: 360 h, read-out: GI.
Experiment [3] relates to Setaria faberi. Kind of experiment: Post-emergence herbicidal activity against Setaria faberi (Giant Foxtail) seedlings assessed as plant growth inhibition at 150 g ai/ha measured 15 days after compound treatment under greenhouse conditions. Format: functional. To be noted: 360 h, read-out: GI.
Experiment [4] concerns Echinochloa crus-galli. Kind of experiment: Post emergence herbicidal activity against Echinochloa crus-galli (barnyard grass) seedlings assessed as plant growth inhibition at 37.5 g ai/ha measured 15 days after compound treatment under greenhouse conditions. In kind it is functional. The conditions noted are these: 360 h, read-out: GI.
Experiment [5] deals with T1, Protoporphyrinogen oxidase, chloroplastic (Nicotiana tabacum, UniProt O24163).
T1 sequence (O24163 whole entry): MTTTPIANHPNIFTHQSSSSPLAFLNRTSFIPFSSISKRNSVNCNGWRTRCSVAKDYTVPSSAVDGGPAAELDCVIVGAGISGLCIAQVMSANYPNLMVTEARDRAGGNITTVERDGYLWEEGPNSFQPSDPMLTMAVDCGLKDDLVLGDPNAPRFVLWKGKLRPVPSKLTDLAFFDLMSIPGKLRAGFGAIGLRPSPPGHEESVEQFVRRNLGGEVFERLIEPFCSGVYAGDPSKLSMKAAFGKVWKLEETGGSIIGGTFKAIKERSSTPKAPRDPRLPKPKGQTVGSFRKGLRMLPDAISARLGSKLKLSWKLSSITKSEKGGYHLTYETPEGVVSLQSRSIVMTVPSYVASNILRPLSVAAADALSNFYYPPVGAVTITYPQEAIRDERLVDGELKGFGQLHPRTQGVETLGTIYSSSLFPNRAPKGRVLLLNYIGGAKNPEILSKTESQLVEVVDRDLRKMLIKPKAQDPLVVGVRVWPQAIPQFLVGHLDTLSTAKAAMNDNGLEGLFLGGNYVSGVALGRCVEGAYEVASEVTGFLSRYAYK
Kind of experiment: Inhibition of Nicotiana tabacum (tobacco) recombinant PPO assessed as protoporphyrin IX formation at room temperature by fluorimetric assay.

Experiment [6] concerns Echinochloa crus-galli. In words: Post emergence herbicidal activity against Echinochloa crus-galli (barnyard grass) seedlings assessed as plant growth inhibition at 150 g ai/ha measured 15 days after compound treatment under greenhouse conditions. In kind it is functional. The conditions noted are these: 360 h, read-out: GI.
The subject of experiment [7] is Brassica juncea. In words: Post-emergence herbicidal activity against Brassica juncea seedlings assessed as plant growth inhibition at 75 g ai/ha measured 15 days after compound treatment under greenhouse conditions. To be noted: 360 h, read-out: GI. Format: functional.
For experiment [8], the system named is Amaranthus retroflexus. Kind of experiment: Post emergence herbicidal activity against Amaranthus retroflexus seedlings assessed as plant growth inhibition at 37.5 g ai/ha measured 15 days after compound treatment under greenhouse conditions. To be noted: 360 h, read-out: GI. Format: functional.
Experiment [9] has as its system Amaranthus retroflexus. In words: Post emergence herbicidal activity against Amaranthus retroflexus seedlings assessed as plant growth inhibition at 150 g ai/ha measured 15 days after compound treatment under greenhouse conditions. Format: functional. To be noted: 360 h, read-out: GI.
The test system of experiment [10] is Echinochloa crus-galli. In words: Post emergence herbicidal activity against Echinochloa crus-galli (barnyard grass) seedlings assessed as plant growth inhibition at 75 g ai/ha measured 15 days after compound treatment under greenhouse conditions. In kind it is functional. To be noted: 360 h, read-out: GI.
Experiment [11] relates to Digitaria sanguinalis. In words: Post-emergence herbicidal activity against Digitaria sanguinalis (hairy crabgrass) seedlings assessed as plant growth inhibition at 37.5 g ai/ha measured 15 days after compound treatment under greenhouse conditions. In kind it is functional. To be noted: 360 h, read-out: GI.
The subject of experiment [12] is Setaria faberi. Kind of experiment: Post-emergence herbicidal activity against Setaria faberi (Giant Foxtail) seedlings assessed as plant growth inhibition at 75 g ai/ha measured 15 days after compound treatment under greenhouse conditions. In kind it is functional. The conditions noted are these: 360 h, read-out: GI.
Experiment [13] relates to Amaranthus retroflexus. Kind of experiment: Post emergence herbicidal activity against Amaranthus retroflexus seedlings assessed as plant growth inhibition at 75 g ai/ha measured 15 days after compound treatment under greenhouse conditions. In kind it is functional. To be noted: 360 h, read-out: GI.
Experiment [14] relates to Chenopodium album. Kind of experiment: Post-emergence herbicidal activity against Chenopodium album seedlings assessed as plant growth inhibition at 37.5 g ai/ha measured 15 days after compound treatment under greenhouse conditions. In kind it is functional. The conditions noted are these: 360 h, read-out: GI.
Experiment [15] concerns Digitaria sanguinalis. Kind of experiment: Post-emergence herbicidal activity against Digitaria sanguinalis (hairy crabgrass) seedlings assessed as plant growth inhibition at 150 g ai/ha measured 15 days after compound treatment under greenhouse conditions. The conditions noted are these: 360 h, read-out: GI. In kind it is functional.
The subject of experiment [16] is Setaria faberi. Kind of experiment: Post-emergence herbicidal activity against Setaria faberi (Giant Foxtail) seedlings assessed as plant growth inhibition at 37.5 g ai/ha measured 15 days after compound treatment under greenhouse conditions. Format: functional. To be noted: 360 h, read-out: GI.
Experiment [17] relates to Brassica juncea. In words: Post-emergence herbicidal activity against Brassica juncea seedlings assessed as plant growth inhibition at 150 g ai/ha measured 15 days after compound treatment under greenhouse conditions. In kind it is functional. The conditions noted are these: 360 h, read-out: GI.
For experiment [18], the system named is Digitaria sanguinalis. Kind of experiment: Post-emergence herbicidal activity against Digitaria sanguinalis (hairy crabgrass) seedlings assessed as plant growth inhibition at 75 g ai/ha measured 15 days after compound treatment under greenhouse conditions. Format: functional. The conditions noted are these: 360 h, read-out: GI.
Experiment [19] has as its system Chenopodium album. Kind of experiment: Post-emergence herbicidal activity against Chenopodium album seedlings assessed as plant growth inhibition at 150 g ai/ha measured 15 days after compound treatment under greenhouse conditions. Format: functional. The conditions noted are these: 360 h, read-out: GI.

As for `Cc1nn(-c2cc3nc(SCCC(=O)O)sc3cc2Cl)c(=O)n1C(F)F`, the inhibition of growth at 37.5 g/ha is 50% in the experiment with Brassica juncea [1]; 50% in the experiment with Echinochloa crus-galli [4]; less than 50% in the experiment on Amaranthus retroflexus [8]; less than 50% in the experiment on Digitaria sanguinalis [11]; less than 50% in the experiment on Chenopodium album [14]; 60% with Setaria faberi [16]. The inhibition of growth at 75 g/ha in the experiment on Chenopodium album [2] was less than 50%; in the experiment on Brassica juncea [7], 60%; in the experiment with Echinochloa crus-galli [10], 50%; in the experiment with Setaria faberi [12], 60%; in the experiment on Amaranthus retroflexus [13], less than 50%; in the experiment on Digitaria sanguinalis [18] it was less than 50%. Moreover, the inhibition of growth at 150 g/ha in the experiment with Setaria faberi [3] is less than 50%; in the experiment with Echinochloa crus-galli [6], less than 50%; in the experiment on Amaranthus retroflexus [9], no less than 90%; with Digitaria sanguinalis [15] it was less than 50%; in the experiment on Brassica juncea [17], no less than 90%; in the experiment on Chenopodium album [19], no less than 90%. For the same molecule, the Ki in experiment [5] is 17.8 µM.
